What all share (type): biochemical
One assay addresses rhMAO-A (Homo sapiens (Human), UniProt P21397). As to the kind of experiment: MAO-Glo assay, MAO-A inhibition. Here is the method: (§1) The capability of compounds described herein to inhibit MAO was determined using a modified Promega MAO-Glo™ assay kit. The substrate ((4S)-4,5-dihydro-2-(6-hydroxybenzothiazolyl)-4-thiazolecarboxylic acid) was converted by MAO to produce methyl ester luciferin. The luciferin was then converted by luciferase to produce oxyluciferin and light. The light was measured using a luminescence setting on the plate reader. A standard curve was prepared by serially diluting luciferin in reaction buffer. The standard kit reaction buffer was used—100 mM HEPES (pH 7.5), 5% glycerol. The substrate was dispensed into the wells so that the final concentration for MAO-A inhibition assay would be 10 μM and MAO-B inhibition assay would be […]. Inhibitors were diluted in DMSO to 4× and distributed to the appropriate wells. Clorgyline and Deprenyl served as positive controls. rhMAO-A and rhMAO-B were purchased from Sigma. MAO-A or MAO-B was added to the appropriate wells. The plate was incubated for 1 hour, at room temperature with gentle shaking (90 rpm). The detection agent was added at equal volume (48 μL detection agent to 48 μL reaction). The plate was incubated for 20 minutes, at room temperature with gentle shaking (90 rpm). The plate luminescence was read. Data processing was performed using Prism software.
(§2) The capability of compounds described herein to inhibit MAO was determined using a modified Promega MAO-Glo™ assay. Test compounds, substrate and enzyme were incubated per manufacturer instructions for 1 hour, at room temperature with gentle shaking (90 rpm) before addition of detection agent. The detection agent was added at equal volume (48 μL detection agent to 48 μL reaction). The plate was incubated for 20 minutes, at room temperature with gentle shaking (90 rpm). The plate luminescence was read. Data processing was performed using Prism software.

For the next assay, the target named is rhMAO-B (Homo sapiens (Human), UniProt P27338). Kind of assay: MAO-Glo assay, MAO-B inhibition. Here is the method: as §1, §2
The target in a further assay is rhVAP-1 (Homo sapiens (Human), UniProt Q16853). Kind of assay: VAP-1 fluorometric assay (Amplex Red/HRP, benzylamine substrate). The settings on record: class symbols, ranges defined in μM. Here is the method: The capability of compounds described herein to inhibit the enzymatic activity of vascular adhesion protein-1 (VAP-1) was determined by fluorometric assay. The assay procedure provided by R&D Systems was modified slightly for use as an inhibitor screening assay. The assay measured the H2O2 generated from the oxidative deamination of benzylamine by rhVAP-1 by converting Amplex® Red to the fluorescent product, resorufin, via horseradish peroxidase (HRP) and H2O2. Reaction buffer was 10 mM NaHCO3, pH 7.4. A standard curve was prepared by serially diluting H2O2 in reaction buffer. A 10 μM solution of resorufin was prepared in reaction buffer and was dispensed to 2 wells. These wells served as positive control for maximum fluorescence. Reaction buffer was added to the individual wells so that the final volume in each well was 100 μL. Amplex Red was diluted to 1 mM in reaction buffer. A 10 U stock of HRP was prepared in reaction buffer. A reaction cocktail was prepared by mixing equal parts 1 mM Amplex Red with 10 U HRP with 3 parts reaction buffers. The reaction cocktail was added to the appropriate wells, so that that final concentration in the well was 0.05 mM Amplex Red and 0.5 U HRP. A 200 μM solution of benzylamine was prepared in reaction buffer. Benzylamine was added to the appropriate wells so that the final concentration was 50 μM. Inhibitors were diluted in DMSO to 20× and distributed to the appropriate wells. LJP-1207 served a positive control. rhVAP-1 was purchased from R&D Systems. The concentration used for each lot was determined so that the activity was equal to the first lot. Two wells were left blank as controls. The plate was incubated for 30 minutes at 37° C., protected from light under foil. The plate was read at 530/35 emission and 590/35 excitation. Data processing was performed using Excel and Prism software.
The capability of compounds described herein to inhibit the enzymatic activity of vascular adhesion protein-1 (VAP-1) was determined by fluorometric assay. The assay procedure provided by R&D Systems was modified slightly for use as an inhibitor screening assay. The assay measured the H2O2 generated from the oxidative deamination of benzylamine by rhVAP-1 by converting Amplex® Red to the fluorescent product, resorufin, via horseradish peroxidase (HRP) and H2O2. Amplex Red, HRP, Benzylamine, inhibitors (with DMSO as vehicle, 0.5% v/v) and rhVAP-1 were added to the wells. Assay was conducted in 10 mM NaHCO3, pH 7.4. A standard curve was prepared by serially diluting H2O2 in reaction buffer. The plate was incubated for 30 minutes at 37° C., protected from light under foil. The plate was read at 530/35 emission and 590/35 excitation. Data processing was performed using Prism software.

[1] abbreviates: class symbols, ranges defined in μM.

The structures appear in SMILES notation. Where a name gives a salt, the structure may show the parent alone.

Sequence of rhMAO-A (P21397 whole entry): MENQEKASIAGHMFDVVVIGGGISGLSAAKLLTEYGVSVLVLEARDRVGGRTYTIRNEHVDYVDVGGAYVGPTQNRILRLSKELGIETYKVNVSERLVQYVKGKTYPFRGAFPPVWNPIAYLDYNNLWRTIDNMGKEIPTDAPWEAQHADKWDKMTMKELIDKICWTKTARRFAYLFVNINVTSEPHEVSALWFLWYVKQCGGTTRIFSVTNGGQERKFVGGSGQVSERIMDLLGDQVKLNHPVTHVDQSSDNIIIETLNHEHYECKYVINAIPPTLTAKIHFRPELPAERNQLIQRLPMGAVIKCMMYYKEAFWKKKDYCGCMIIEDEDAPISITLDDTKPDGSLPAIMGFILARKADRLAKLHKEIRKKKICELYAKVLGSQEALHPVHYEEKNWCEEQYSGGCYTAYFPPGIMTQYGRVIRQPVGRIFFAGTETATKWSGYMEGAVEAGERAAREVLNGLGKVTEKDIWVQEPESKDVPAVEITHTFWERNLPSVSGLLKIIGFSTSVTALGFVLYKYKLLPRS
Sequence of rhMAO-B (P27338 whole entry): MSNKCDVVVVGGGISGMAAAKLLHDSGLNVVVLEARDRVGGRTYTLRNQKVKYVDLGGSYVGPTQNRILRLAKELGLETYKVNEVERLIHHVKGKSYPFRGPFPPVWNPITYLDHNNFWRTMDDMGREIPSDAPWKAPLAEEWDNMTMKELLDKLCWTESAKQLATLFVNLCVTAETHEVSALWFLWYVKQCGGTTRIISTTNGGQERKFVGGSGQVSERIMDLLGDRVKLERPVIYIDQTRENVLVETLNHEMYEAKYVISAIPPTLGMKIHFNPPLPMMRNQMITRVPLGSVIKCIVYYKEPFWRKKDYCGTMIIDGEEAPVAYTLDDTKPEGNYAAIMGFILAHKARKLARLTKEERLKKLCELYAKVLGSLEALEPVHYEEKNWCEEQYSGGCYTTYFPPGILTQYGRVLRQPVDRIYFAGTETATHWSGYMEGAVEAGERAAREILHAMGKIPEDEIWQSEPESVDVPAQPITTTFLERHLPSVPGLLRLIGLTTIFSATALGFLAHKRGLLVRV
Sequence of rhVAP-1 (Q16853 whole entry): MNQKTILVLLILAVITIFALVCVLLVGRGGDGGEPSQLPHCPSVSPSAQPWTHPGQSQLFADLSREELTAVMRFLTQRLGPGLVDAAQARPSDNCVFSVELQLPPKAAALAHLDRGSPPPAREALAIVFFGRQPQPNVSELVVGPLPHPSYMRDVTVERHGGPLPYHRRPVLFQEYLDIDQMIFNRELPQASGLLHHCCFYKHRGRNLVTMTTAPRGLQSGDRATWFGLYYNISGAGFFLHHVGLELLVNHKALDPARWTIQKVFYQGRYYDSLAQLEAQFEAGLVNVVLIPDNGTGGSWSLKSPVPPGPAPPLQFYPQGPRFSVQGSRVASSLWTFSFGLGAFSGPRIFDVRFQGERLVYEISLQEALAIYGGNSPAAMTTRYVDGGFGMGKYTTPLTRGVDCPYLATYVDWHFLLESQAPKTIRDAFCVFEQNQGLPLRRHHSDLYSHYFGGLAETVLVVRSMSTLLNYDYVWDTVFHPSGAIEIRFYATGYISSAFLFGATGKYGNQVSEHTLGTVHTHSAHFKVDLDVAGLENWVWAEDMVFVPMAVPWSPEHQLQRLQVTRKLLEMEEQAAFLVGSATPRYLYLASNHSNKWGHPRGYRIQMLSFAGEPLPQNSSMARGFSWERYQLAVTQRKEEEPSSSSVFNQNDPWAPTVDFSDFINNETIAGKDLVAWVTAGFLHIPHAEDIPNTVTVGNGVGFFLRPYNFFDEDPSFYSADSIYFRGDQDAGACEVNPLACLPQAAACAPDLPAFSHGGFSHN

With `CCCCc1nc2ccc(OC/C(=C/F)CN)cc2o1` [Example 1, (E)-2-(((2-butylbenzo[d]oxazol-6-yl)oxy)methyl)-3-fluoroprop-2-en-1-amine 4-methylbenzenesulfonate], the IC50 at rhMAO-A (setting [1]), against rhMAO-B (setting [1]) and against rhVAP-1 was under 0.1 µM each time.

For `CCCCc1nc2ccc(OC/C(=C/F)CN)c(F)c2o1` [Example 2, (E)-2-(((2-butyl-7-fluorobenzo[d]oxazol-6-yl)oxy)methyl)-3-fluoroprop-2-en-1-amine], the IC50 on rhMAO-A (setting [1]) was 10 to 30 µM; at rhMAO-B (setting [1]) it was under 0.1 µM; against rhVAP-1, under 0.1 µM.

For the molecule `CCCCc1nc2ccc(OC/C(=C/F)CN)cc2s1` [Example 3, (E)-2-(((2-butylbenzo[d]thiazol-6-yl)oxy)methyl)-3-fluoroprop-2-en-1-amine], the IC50 is 1 to 10 µM against rhMAO-A (setting [1]), under 0.1 µM against rhMAO-B (setting [1]) and under 0.1 µM against rhVAP-1.

Regarding `CCCNc1nc2ccc(OC/C(=C/F)CN)cc2s1` [Example 4, (E)-6-((2-(aminomethyl)-3-fluoroallyl)oxy)-N-propylbenzo[d]thiazol-2-amine], the IC50 on rhMAO-A (setting [1]) was 10 to 30 µM; against rhMAO-B (setting [1]), 0.1 to 1 µM; against rhVAP-1, under 0.1 µM.

Consider `CCCNc1nc2ccc(OC/C(=C/F)CN)cc2o1` [Example 5, (E)-6-((2-(aminomethyl)-3-fluoroallyl)oxy)-N-propylbenzo[d]oxazol-2-amine], for which the IC50 against rhMAO-A (setting [1]) was 10 to 30 µM; at rhMAO-B (setting [1]) it was 0.1 to 1 µM; on rhVAP-1, under 0.1 µM.

Turning to `CCCNc1nc2ccc(OC/C(=C/F)CN)c(F)c2o1` [Example 6, (E)-6-((2-(aminomethyl)-3-fluoroallyl)oxy)-7-fluoro-N-propylbenzo[d]oxazol-2-amine], the IC50 at rhMAO-A (setting [1]) was 10 to 30 µM; at rhMAO-B (setting [1]), 0.1 to 1 µM; against rhVAP-1 it was under 0.1 µM.

As for `CCCCc1nc2ccc(OC/C(=C/F)CN)c(Br)c2s1` [Example 7, (E)-2-(((7-bromo-2-butylbenzo[d]thiazol-6-yl)oxy)methyl)-3-fluoroprop-2-en-1-amine], the IC50 against rhMAO-A (setting [1]), at rhMAO-B (setting [1]) and at rhVAP-1 was under 0.1 µM in each case.

With `CCCCc1nc2cc(OC/C(=C/F)CN)ccc2o1` [Example 8, (E)-2-(((2-butylbenzo[d]oxazol-5-yl)oxy)methyl)-3-fluoroprop-2-en-1-amine 4-methylbenzenesulfonate], the IC50 on rhMAO-A (setting [1]) is 1 to 10 µM; at rhMAO-B (setting [1]) it was under 0.1 µM; against rhVAP-1 it was under 0.1 µM.

`CCCCn1oc2cc(OC/C(=C/F)CN)ccc2c1=O` [Example 9, (E)-6-((2-(aminomethyl)-3-fluoroallyl)oxy)-2-butylbenzo[d]isoxazol-3(2H)-one 4-methylbenzenesulfonate]: the IC50 was 10 to 30 µM against rhMAO-A (setting [1]), 1 to 10 µM on rhMAO-B (setting [1]) and under 0.1 µM at rhVAP-1.

Turning to `CCCCc1nc2ccc(OC/C(=C/F)CN)c(C)c2o1` [Example 10, (E)-2-(((2-butyl-7-methylbenzo[d]oxazol-6-yl)oxy)methyl)-3-fluoroprop-2-en-1-amine], the IC50 is 1 to 10 µM at rhMAO-A (setting [1]), under 0.1 µM at rhMAO-B (setting [1]) and 0.1 to 1 µM against rhVAP-1.

With `CCCCc1nc2cc(OC/C(=C/F)CN)ccc2n1C` [Example 11, (E)-2-(((2-butyl-1-methyl-1H-benzo[d]imidazol-5-yl)oxy)methyl)-3-fluoroprop-2-en-1-amine], the IC50 was over 50 µM on rhMAO-A (bound printed in cell), over 50 µM on rhMAO-B (bound printed in cell) and under 0.1 µM against rhVAP-1.

As to `CCCNc1nc2ccc(OC/C(=C\F)CN)cc2s1` [Example 12, (Z)-6-((2-(aminomethyl)-3-fluoroallyl)oxy)-N-propylbenzo[d]thiazol-2-amine 4-methylbenzenesulfonate], the IC50 is 1 to 10 µM against rhMAO-A (setting [1]), 1 to 10 µM against rhMAO-B (setting [1]) and under 0.1 µM against rhVAP-1.

`CCCCc1nc2ccc(OC/C(=C/F)CN)cc2[nH]1` [Example 13, (E)-2-(((2-butyl-1H-benzo[d]imidazol-6-yl)oxy)methyl)-3-fluoroprop-2-en-1-amine 4-methylbenzenesulfonate]: the IC50 against rhMAO-A (bound printed in cell) was over 50 µM; at rhMAO-B (setting [1]), 1 to 10 µM; against rhVAP-1 it was under 0.1 µM.

`CCCNc1nc2ccc(OC/C(=C\F)CN)c(F)c2s1` [Example 14, (Z)-6-((2-(aminomethyl)-3-fluoroallyl)oxy)-7-fluoro-N-propylbenzo[d]thiazol-2-amine 4-methylbenzenesulfonate]: the concentration for half-maximal inhibition (IC50) against rhMAO-A (setting [1]) is 1 to 10 µM; against rhMAO-B (setting [1]), 1 to 10 µM; against rhVAP-1, under 0.1 µM.

Turning to `CCCCc1nc2ccc(OC/C(=C\F)CN)c(F)c2s1` [Example 15, (Z)-2-(((2-butyl-7-fluorobenzo[d]thiazol-6-yl)oxy)methyl)-3-fluoroprop-2-en-1-amine 4-methylbenzenesulfonate], the IC50 on rhMAO-B (setting [1]) and on rhVAP-1 was under 0.1 µM each time.

In the case of `CCCCc1nc2ccc(OC/C(F)=C\CN)cc2o1` [Example 16, (E)-4-((2-butylbenzo[d]oxazol-6-yl)oxy)-3-fluorobut-2-en-1-amine], the IC50 against rhVAP-1 is 0.1 to 1 µM.

For `CCCCc1nc2ccc(NC/C(=C/F)CN)cc2o1` [Example 17, (E)-N1-(2-butylbenzo[d]oxazol-6-yl)-2-(fluoromethylene)propane-1,3-diamine], the IC50 against rhMAO-A (setting [1]) was 10 to 30 µM; against rhMAO-B (setting [1]), 0.1 to 1 µM; on rhVAP-1 it was under 0.1 µM.

Take `CCCCc1nc2ccc(CC(=CF)CN)cc2o1` [Example 18, 2-((2-butylbenzo[d]oxazol-6-yl)methyl)-3-fluoroprop-2-en-1-amine]: the IC50 against rhMAO-A (setting [1]) was 1 to 10 µM; against rhMAO-B (setting [1]) it was 0.1 to 1 µM; at rhVAP-1, under 0.1 µM.

As to `CCCCc1nc2ccc(OC/C(=C\F)CN)cc2o1` [Example 19, (Z)-2-(((2-butylbenzo[d]oxazol-6-yl)oxy)methyl)-3-fluoroprop-2-en-1-amine 4-methylbenzenesulfonate], the IC50 was 1 to 10 µM against rhMAO-A (setting [1]), 0.1 to 1 µM on rhMAO-B (setting [1]) and under 0.1 µM on rhVAP-1.

With `CCCCc1nc2ccc(N(C)C/C(=C/F)CN)cc2o1` [Example 20, (E)-N1-(2-butylbenzo[d]oxazol-6-yl)-2-(fluoromethylene)-N1-methylpropane-1,3-diamine], the IC50 was 10 to 30 µM on rhMAO-A (setting [1]), 1 to 10 µM against rhMAO-B (setting [1]) and under 0.1 µM on rhVAP-1.

On rhVAP-1, `C=C(CN)C(F)(F)Oc1ccc2nc(CCCC)oc2c1` [Example 29, 2-(((2-butylbenzo[d]oxazol-6-yl)oxy)difluoromethyl)prop-2-en-1-amine hydrochloride] displayed an IC50 of 0.1 to 1 µM.

In turn, `CCCCc1nc2ccc(CCC(=CF)CN)cc2o1` [Example 52, 4-(2-butylbenzo[d]oxazol-6-yl)-2-(fluoromethylene)butan-1-amine 4-methylbenzenesulfonate] gave an IC50 at rhVAP-1 of under 0.1 µM.

`CCCCc1nc2ccc(/C=C(/F)CN)cc2o1` [Example 95, (E)-3-(2-butylbenzo[d]oxazol-6-yl)-2-fluoroprop-2-en-1-amine]: the IC50 against rhVAP-1 lay in the range of 0.1 to 1 µM.

The IC50 is the point on the concentration scale where inhibition reaches its midpoint. Lower therefore signals inhibition by little substance.
